Laboratory results reported in patent publication US20230131966A1, “FUNGICIDAL AMIDES” (FMC Corporation, priority 2020, published 2023).

Columns and labels:
Assay type in all cases: in vivo
[1] = tested on: Puccinia recondita f. sp. tritici; assay: Test B: wheat leaf rust control on wheat seedlings; settings: for Test B disease control rating: 250 ppm, wheat seedlings, 100 = 100% disease control, 0 = no control
[2] = tested on: Phakopsora pachyrhizi; assay: Test A: Asian soybean rust control on soybean seedlings; settings: for Test A disease control rating: 250 ppm, soybean seedlings, 100 = 100% disease control, 0 = no control
[3] = tested on: Botrytis cinerea; assay: Test E: tomato Botrytis control on tomato seedlings; settings: for Test E disease control rating: 250 ppm, 100 = 100% disease control, 0 = no control
[4] = tested on: Erysiphe graminis f. sp. tritici; assay: Test G: wheat powdery mildew control on wheat seedlings; settings: for Test G disease control rating: 250 ppm, 100 = 100% disease control, 0 = no control
[5] = tested on: Zymoseptoria tritici; assay: Test C: wheat leaf blotch control on wheat seedlings; settings: for Test C disease control rating: 250 ppm, wheat seedlings, 100 = 100% disease control, 0 = no control
[6] = tested on: Phytophthora infestans; assay: whole plant or invertebrate; settings: tomato seedlings; for Test F disease control rating: 250 ppm, 100 = 100% disease control, 0 = no control
[7] = tested on: Plasmopara viticola; assay: Test D: grape downy mildew control on grape seedlings; settings: for Test D disease control rating: 250 ppm, 100 = 100% disease control, 0 = no control
[8] = rate 250 ppm, relative to the controls

| SMILES | Test B disease control rating [1] [%] | Test A disease control rating [2] [%] | Test E disease control rating [3] [%] | Test G disease control rating [4] [%] | Test C disease control rating [5] [%] | Test F disease control rating [6] [%] | Test D disease control rating [7] [%] | Test B disease control rating (100 = 100% disease control, 0 = no disease control) [1, 8] [%] | Test A disease control rating (100 = 100% disease control, 0 = no disease control) [2, 8] [%] | Test E disease control rating (100 = 100% disease control, 0 = no disease control) [3, 8] [%] | Test G disease control rating (100 = 100% disease control, 0 = no disease control) [4, 8] [%] | Test C disease control rating (100 = 100% disease control, 0 = no disease control) [5, 8] [%] | Test F disease control rating (100 = 100% disease control, 0 = no disease control) [6, 8] [%] | Test D disease control rating (100 = 100% disease control, 0 = no disease control) [7, 8] [%] |
| --- | --- | --- | --- | --- | --- | --- | --- | --- | --- | --- | --- | --- | --- | --- |
| COc1ccnc(C(=O)NC(C)C(=O)OC(C)c2ccc(C3CCCCC3)cc2)c1OC(=O)C(C)C (mixture of isomers) [Compound 154] | 98 | 100 | 0 | 0 | 85 | 0 | 48 | – | – | – | – | – | – | – |
| COc1ccc(COc2c(OC)ccnc2C(=O)NC(C)C(=O)OC(C)c2ccc(C3CCCCC3)cc2)cc1 (mixture of isomers) [Compound 155] | 99 | 100 | 0 | 0 | 98 | 0 | 5 | – | – | – | – | – | – | – |
| COc1ccnc(C(=O)NC(C)C(=O)OC(C)c2ccc(C3CCCCC3)cc2)c1OS(C)(=O)=O (mixture of isomers) [Compound 156] | 68 | 89 | 0 | 0 | 13 | 17 | 7 | – | – | – | – | – | – | – |
| COc1ccnc(C(=O)NC(C)C(=O)OC(C)c2cccc(C3CC3)c2)c1OC(C)=O (mixture of isomers) [Compound 157] | 100 | 100 | 0 | 0 | 86 | 0 | 63 | – | – | – | – | – | – | – |
| COc1ccnc(C(=O)NC(C)C(=O)OC(C)c2cccc(C3CC3)c2)c1O (mixture of isomers) [Compound 158] | 100 | 100 | 0 | 0 | 73 | 0 | 94 | – | – | – | – | – | – | – |
| COc1ccnc(C(=O)NC(C)C(=O)OC(C#N)c2ccccc2)c1O (mixture of isomers) [Compound 159] | 0 | 0 | 0 | 0 | 0 | 0 | 11 | – | – | – | – | – | – | – |
| CC(NC(=O)c1cccc(NC=O)c1O)C(=O)OC(C)c1cccc(OC2CCC(C)(C)CC2)c1 (mixture of isomers) [Compound 160] | 92 | 100 | 0 | 0 | 92 | 80 | 98 | – | – | – | – | – | – | – |
| COc1ccnc(C(=O)NC(C)C(=O)OC(C)C2CCc3ccccc3O2)c1O (mixture of isomers) [Compound 164] | 99 | 100 | 0 | 0 | 99 | 0 | 0 | – | – | – | – | – | – | – |
| COc1ccnc(C(=O)NC(C)C(=O)OC(C)C2CCC(C)(C)CC2)c1OC(C)=O (mixture of isomers) [Compound 165] | 100 | 100 | 0 | 0 | 97 | 0 | 10 | – | – | – | – | – | – | – |
| COc1ccnc(C(=O)NC(C)C(=O)OC(C)c2ncc(C(F)(F)F)cc2Cl)c1O (mixture of isomers) [Compound 166] | 68 | 97 | 0 | 0 | 0 | 0 | 15 | – | – | – | – | – | – | – |
| COc1ccnc(C(=O)NC(C)C(=O)OC(C)C2CC(C)(C)CC(C)(C)C2)c1OC(C)=O (mixture of isomers) [Compound 171] | 100 | 100 | 0 | 0 | 80 | 53 | 49 | – | – | – | – | – | – | – |
| COc1ccnc(C(=O)NC(C)C(=O)OC(C)C2CCC(C)(C)CC2)c1O (mixture of isomers) [Compound 173] | 98 | 100 | 0 | 0 | 66 | 0 | 8 | – | – | – | – | – | – | – |
| COc1ccnc(C(=O)NC(C)C(=O)OC(C)C2CCC(C(C)(C)C)CC2)c1O (mixture of isomers) [Compound 176] | 89 | 99 | 0 | 0 | 57 | 0 | 14 | – | – | – | – | – | – | – |
| COc1ccnc(C(=O)NC(C)C(=O)OC(C)C2CCC(C(F)(F)F)CC2)c1OC(C)=O (mixture of isomers) [Compound 180] | 99 | 100 | 0 | 0 | 95 | 26 | 51 | – | – | – | – | – | – | – |
| COc1ccnc(C(=O)NC(C)C(=O)OC(C)C2CCC(C(C)(C)C)CC2)c1OC(C)=O (mixture of isomers) [Compound 181] | 100 | 100 | 0 | 0 | 100 | 26 | 80 | – | – | – | – | – | – | – |
| COc1ccnc(C(=O)NC(C)C(=O)OC(C)C2CCCc3ccccc32)c1OC(C)=O (mixture of isomers) [Compound 185] | 100 | 100 | 0 | 0 | 100 | 0 | 61 | – | – | – | – | – | – | – |
| COc1ccnc(C(=O)NC(C)C(=O)OC(C)C2Cc3ccccc3O2)c1OC(C)=O (mixture of isomers) [Compound 186] | 100 | 94 | 0 | 0 | 83 | 0 | 14 | – | – | – | – | – | – | – |
| COc1ccnc(C(=O)NC(C)C(=O)OC(C)C2Cc3ccccc3O2)c1O (mixture of isomers) [Compound 187] | – | – | – | – | – | – | – | 100 | 97 | 0 | 0 | 96 | 0 | 6 |
